Assay results: ChEMBL document CHEMBL3046407, “Toxicity of monoterpenes against larvae and adults of Colorado potato beetle, Leptinotarsa decemlineata Say (Coleoptera: Chrysomelidae)” (2007)

Legend:
Type in all cases: functional
[1] = tested on: Leptinotarsa decemlineata; test: Insecticidal activity against third-instar larval stage of Leptinotarsa decemlineata infested potato leaves assessed as mortality at 20 ul after 24 hr relative to control
[2] = tested on: Leptinotarsa decemlineata; test: Insecticidal activity against adult Leptinotarsa decemlineata infested potato leaves assessed as mortality at 20 ul after 96 hr relative to control
[3] = tested on: Leptinotarsa decemlineata; test: Insecticidal activity against adult Leptinotarsa decemlineata infested potato leaves assessed as mortality at 20 ul after 24 hr relative to control
[4] = tested on: Leptinotarsa decemlineata; test: Insecticidal activity against second-instar larval stage of Leptinotarsa decemlineata infested potato leaves assessed as mortality at 10 ul after 12 hr relative to control
[5] = tested on: Leptinotarsa decemlineata; test: Insecticidal activity against first-instar larval stage of Leptinotarsa decemlineata infested potato leaves assessed as mortality at 10 ul after 96 hr relative to control
[6] = tested on: Leptinotarsa decemlineata; test: Insecticidal activity against second-instar larval stage of Leptinotarsa decemlineata infested potato leaves assessed as mortality at 10 ul after 96 hr (reference value: 3.3 +/- 3.3%)
[7] = tested on: Leptinotarsa decemlineata; test: Insecticidal activity against third-instar larval stage of Leptinotarsa decemlineata infested potato leaves assessed as mortality at 20 ul after 96 hr (reference value: 3.3 +/- 3.3%)
[8] = tested on: Leptinotarsa decemlineata; test: Insecticidal activity against second-instar larval stage of Leptinotarsa decemlineata infested potato leaves assessed as mortality at 10 ul after 48 hr (reference value: 3.3 +/- 3.3%)
[9] = tested on: Leptinotarsa decemlineata; test: Insecticidal activity against third-instar larval stage of Leptinotarsa decemlineata infested potato leaves assessed as mortality at 10 ul after 24 hr relative to control
[10] = tested on: Leptinotarsa decemlineata; test: Insecticidal activity against first-instar larval stage of Leptinotarsa decemlineata infested potato leaves assessed as mortality at 20 ul after 96 hr relative to control
[11] = tested on: Leptinotarsa decemlineata; test: Insecticidal activity against third-instar larval stage of Leptinotarsa decemlineata infested potato leaves assessed as mortality at 10 ul after 96 hr (reference value: 3.3 +/- 3.3%)
[12] = tested on: Leptinotarsa decemlineata; test: Insecticidal activity against adult Leptinotarsa decemlineata infested potato leaves assessed as mortality at 10 ul after 96 hr relative to control
[13] = tested on: Leptinotarsa decemlineata; test: Insecticidal activity against first-instar larval stage of Leptinotarsa decemlineata infested potato leaves assessed as mortality at 20 ul after 24 hr relative to control
[14] = tested on: Leptinotarsa decemlineata; test: Insecticidal activity against adult Leptinotarsa decemlineata infested potato leaves assessed as mortality at 20 ul after 12 hr relative to control
[15] = tested on: Leptinotarsa decemlineata; test: Insecticidal activity against third-instar larval stage of Leptinotarsa decemlineata infested potato leaves assessed as mortality at 20 ul after 48 hr (reference value: 3.3 +/- 3.3%)
[16] = tested on: Leptinotarsa decemlineata; test: Insecticidal activity against first-instar larval stage of Leptinotarsa decemlineata infested potato leaves assessed as mortality at 20 ul after 48 hr relative to control
[17] = tested on: Leptinotarsa decemlineata; test: Insecticidal activity against third-instar larval stage of Leptinotarsa decemlineata infested potato leaves assessed as mortality at 10 ul after 48 hr (reference value: 3.3 +/- 3.3%)
[18] = tested on: Leptinotarsa decemlineata; test: Insecticidal activity against second-instar larval stage of Leptinotarsa decemlineata infested potato leaves assessed as mortality at 10 ul after 24 hr (reference value: 3.3 +/- 3.3%)
[19] = tested on: Leptinotarsa decemlineata; test: Insecticidal activity against second-instar larval stage of Leptinotarsa decemlineata infested potato leaves assessed as mortality at 20 ul after 48 hr (reference value: 3.3 +/- 3.3%)
[20] = tested on: Leptinotarsa decemlineata; test: Insecticidal activity against adult Leptinotarsa decemlineata infested potato leaves assessed as mortality at 10 ul after 12 hr relative to control
[21] = tested on: Leptinotarsa decemlineata; test: Insecticidal activity against second-instar larval stage of Leptinotarsa decemlineata infested potato leaves assessed as mortality at 20 ul after 24 hr (reference value: 3.3 +/- 3.3%)
[22] = tested on: Leptinotarsa decemlineata; test: Insecticidal activity against adult Leptinotarsa decemlineata infested potato leaves assessed as mortality at 10 ul after 24 hr relative to control
[23] = tested on: Leptinotarsa decemlineata; test: Insecticidal activity against first-instar larval stage of Leptinotarsa decemlineata infested potato leaves assessed as mortality at 10 ul after 24 hr relative to control
[24] = tested on: Leptinotarsa decemlineata; test: Insecticidal activity against second-instar larval stage of Leptinotarsa decemlineata infested potato leaves assessed as mortality at 20 ul after 12 hr relative to control
[25] = tested on: Leptinotarsa decemlineata; test: Insecticidal activity against first-instar larval stage of Leptinotarsa decemlineata infested potato leaves assessed as mortality at 10 ul after 12 hr relative to control
[26] = tested on: Leptinotarsa decemlineata; test: Insecticidal activity against adult Leptinotarsa decemlineata infested potato leaves assessed as mortality at 10 ul after 48 hr relative to control
[27] = tested on: Leptinotarsa decemlineata; test: Insecticidal activity against third-instar larval stage of Leptinotarsa decemlineata infested potato leaves assessed as mortality at 10 ul after 12 hr relative to control
[28] = tested on: Leptinotarsa decemlineata; test: Insecticidal activity against second-instar larval stage of Leptinotarsa decemlineata infested potato leaves assessed as mortality at 20 ul after 96 hr (reference value: 3.3 +/- 3.3%)
[29] = tested on: Leptinotarsa decemlineata; test: Insecticidal activity against third-instar larval stage of Leptinotarsa decemlineata infested potato leaves assessed as mortality at 20 ul after 12 hr relative to control
[30] = tested on: Leptinotarsa decemlineata; test: Insecticidal activity against first-instar larval stage of Leptinotarsa decemlineata infested potato leaves assessed as mortality at 10 ul after 48 hr relative to control
[31] = tested on: Leptinotarsa decemlineata; test: Insecticidal activity against first-instar larval stage of Leptinotarsa decemlineata infested potato leaves assessed as mortality at 20 ul after 12 hr relative to control
[32] = tested on: Leptinotarsa decemlineata; test: Insecticidal activity against adult Leptinotarsa decemlineata infested potato leaves assessed as mortality at 20 ul after 48 hr relative to control

C=CC(C)(O)CCC=C(C)C (centres undefined) [LINALOOL]
mortality [1]: 33.3%
mortality [2]: 100%
mortality [3]: 73.3%
mortality [4]: 20%
mortality [5]: 100%
mortality [6]: 100%
mortality [7]: 40%
mortality [8]: 76.7%
mortality [9]: 13.3%
mortality [10]: 100%
mortality [11]: 23.3%
mortality [12]: 90%
mortality [13]: 93.3%
mortality [14]: 30%
mortality [15]: 36.7%
mortality [16]: 100%
mortality [17]: 20%
mortality [18]: 73.3%
mortality [19]: 100%
mortality [20]: 16.7%
mortality [21]: 93.3%
mortality [22]: 73.3%
mortality [23]: 53.3%
mortality [24]: 36.7%
mortality [25]: 26.7%
mortality [26]: 83.3%
mortality [27]: 3.3%
mortality [28]: 100%
mortality [29]: 6.7%
mortality [30]: 63.3%
mortality [31]: 40%
mortality [32]: 100%

C=C(C)C1CC=C(C)C(=O)C1 (centres undefined) [CARVONE]
mortality [1]: 86.7%
mortality [2]: 100%
mortality [3]: 36.7%
mortality [4]: 33.3%
mortality [5]: 63.3%
mortality [6]: 63.3%
mortality [7]: 90%
mortality [8]: 63.3%
mortality [9]: 13.3%
mortality [10]: 56.7%
mortality [11]: 16.7%
mortality [12]: 93.3%
mortality [13]: 30%
mortality [14]: 3.3%
mortality [15]: 90%
mortality [16]: 43.3%
mortality [17]: 13.3%
mortality [18]: 53.3%
mortality [19]: 86.7%
mortality [20]: 0%
mortality [21]: 83.3%
mortality [22]: 26.7%
mortality [23]: 43.3%
mortality [24]: 53.3%
mortality [25]: 16.7%
mortality [26]: 66.7%
mortality [27]: 6.7%
mortality [28]: 90%
mortality [29]: 23.3%
mortality [30]: 43.3%
mortality [31]: 10%
mortality [32]: 100%
